Consider 4 molecules from patent publication US20170022171A1, “2,5-DISUBSTITUTED CYCLOPENTANECARBOXYLIC ACIDS AND THEIR USE” (Bayer Pharma Aktiengesellschaft, priority 2014, published 2017).

For orientation: IC50 means the point on the concentration scale where inhibition reaches its midpoint. Read a high IC50 as weaker potency.

SMILES strings stand for the structures.

Holding throughout (format): biochemical
Assay [1] concerns the target T1, mouse MMP-12 (Mus musculus, UniProt P34960).
T1 construct: purchased R&D Systems 3467-MP
The assay is described as follows: In vitro mouse MMP-12 inhibition test (standard or high-sensitivity).

Assay [2] has as its target T2, mouse MMP-8 (Mus musculus, UniProt O70138).
T2 construct: purchased R&D Systems 2904-MP
The experiment in a line: In vitro mouse MMP-8 inhibition test.

Assay [3] deals with T3, mouse MMP-3 (Mus musculus, UniProt P28862).
T3 construct: purchased R&D Systems 548-MP
The experiment in a line: In vitro mouse MMP-3 inhibition test.

For assay [4], the target named is T4, mouse MMP-7 (Mus musculus, UniProt Q10738).
T4 construct: purchased R&D Systems 2967-MP
T4 sequence (Q10738 95-264): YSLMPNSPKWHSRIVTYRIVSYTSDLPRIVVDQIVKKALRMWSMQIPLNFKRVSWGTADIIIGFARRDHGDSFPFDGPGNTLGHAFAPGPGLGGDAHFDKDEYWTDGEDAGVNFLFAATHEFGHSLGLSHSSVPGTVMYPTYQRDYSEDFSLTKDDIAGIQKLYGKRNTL
The experiment in a line: In vitro mouse MMP-7 inhibition test.

Assay [5] concerns the target T5, mouse MMP-9 (Mus musculus, UniProt P41245).
T5 construct: purchased R&D Systems 909-MP
The assay is described as follows: In vitro mouse MMP-9 inhibition test.

T1 sequence (P34960 110-473): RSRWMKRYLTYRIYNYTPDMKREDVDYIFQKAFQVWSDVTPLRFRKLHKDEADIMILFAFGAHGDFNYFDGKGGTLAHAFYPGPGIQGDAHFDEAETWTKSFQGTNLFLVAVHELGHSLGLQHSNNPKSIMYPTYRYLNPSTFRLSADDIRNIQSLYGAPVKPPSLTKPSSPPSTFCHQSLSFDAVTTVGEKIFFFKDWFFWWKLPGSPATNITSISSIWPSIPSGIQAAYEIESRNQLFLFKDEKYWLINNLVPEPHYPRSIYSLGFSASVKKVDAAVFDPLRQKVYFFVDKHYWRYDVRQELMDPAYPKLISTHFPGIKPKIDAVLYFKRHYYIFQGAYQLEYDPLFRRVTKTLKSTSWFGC
T5 sequence (P41245 108-730): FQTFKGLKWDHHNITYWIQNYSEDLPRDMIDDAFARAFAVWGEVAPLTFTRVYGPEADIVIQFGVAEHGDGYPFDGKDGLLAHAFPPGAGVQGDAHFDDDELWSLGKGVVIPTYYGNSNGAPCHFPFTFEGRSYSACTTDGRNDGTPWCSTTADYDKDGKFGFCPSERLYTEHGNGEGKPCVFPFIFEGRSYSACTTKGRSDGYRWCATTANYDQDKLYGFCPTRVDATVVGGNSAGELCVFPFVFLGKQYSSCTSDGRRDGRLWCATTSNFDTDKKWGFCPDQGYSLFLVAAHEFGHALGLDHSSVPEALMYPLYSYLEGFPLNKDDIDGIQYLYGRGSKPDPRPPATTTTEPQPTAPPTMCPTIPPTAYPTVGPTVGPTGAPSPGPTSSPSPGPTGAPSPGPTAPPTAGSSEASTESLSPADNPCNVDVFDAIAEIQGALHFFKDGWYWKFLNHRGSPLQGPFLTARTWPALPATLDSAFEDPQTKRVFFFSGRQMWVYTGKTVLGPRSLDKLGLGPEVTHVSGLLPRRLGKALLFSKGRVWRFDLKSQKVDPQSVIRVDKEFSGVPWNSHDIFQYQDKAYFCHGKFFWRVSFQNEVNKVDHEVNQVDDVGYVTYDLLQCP
T2 sequence (O70138 101-465): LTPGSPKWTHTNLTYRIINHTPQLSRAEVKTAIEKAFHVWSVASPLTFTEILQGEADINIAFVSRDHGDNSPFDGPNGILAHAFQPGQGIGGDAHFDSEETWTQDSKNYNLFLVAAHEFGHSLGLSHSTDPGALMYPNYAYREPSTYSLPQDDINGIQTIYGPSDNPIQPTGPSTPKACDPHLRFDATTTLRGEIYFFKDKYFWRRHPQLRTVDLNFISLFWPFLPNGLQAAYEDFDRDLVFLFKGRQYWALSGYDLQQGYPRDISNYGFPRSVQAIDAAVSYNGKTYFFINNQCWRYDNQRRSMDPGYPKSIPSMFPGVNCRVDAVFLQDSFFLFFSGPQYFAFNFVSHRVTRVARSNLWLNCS
T3 sequence (P28862 100-477): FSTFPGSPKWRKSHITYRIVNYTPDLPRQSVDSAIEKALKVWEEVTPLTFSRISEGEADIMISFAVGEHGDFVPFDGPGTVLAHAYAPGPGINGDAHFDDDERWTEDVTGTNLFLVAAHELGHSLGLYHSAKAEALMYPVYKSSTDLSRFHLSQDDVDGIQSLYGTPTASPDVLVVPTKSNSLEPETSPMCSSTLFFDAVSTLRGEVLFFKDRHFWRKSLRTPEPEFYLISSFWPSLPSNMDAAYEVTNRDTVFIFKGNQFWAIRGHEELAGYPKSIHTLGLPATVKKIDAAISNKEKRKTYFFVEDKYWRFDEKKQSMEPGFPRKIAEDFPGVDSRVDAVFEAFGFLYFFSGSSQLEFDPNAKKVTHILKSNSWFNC

Take `Cc1ccc2nnn(C[C@H]3CC[C@@H](C(=O)c4ccc(OCc5ccccc5)cc4)[C@@H]3C(=O)O)c(=O)c2c1` (single isomer, unassigned) [Example 92, (+)-(1RS,2RS,5SR)-2-[4-(Benzyloxy)benzoyl]-5-[(6-methyl-4-oxo-1,2,3-benzotriazin-3(4H)-yl)methyl]cyclopentanecarboxylic acid]: the IC50 in assay [1] amounted to 0.42 nM; in assay [2], 16 nM; in assay [3], 200 nM; in assay [4], 18 nM; in assay [5], 37 nM.
The like results for `CCCCCCOc1ccc(C(=O)[C@@H]2CC[C@H](Cn3nnc4ccc(C)cc4c3=O)[C@H]2C(=O)O)cc1` (single isomer, unassigned) [Example 121, (+)-(1RS,2RS,5SR)-2-[4-(Hexyloxy)benzoyl]-5-[(6-methyl-4-oxo-1,2,3-benzotriazin-3(4H)-yl)methyl]cyclopentanecarboxylic acid] were, in that order, 4 nM, 120 nM, 2700 nM, 100 nM and 880 nM.
Consider `O=C(O)[C@@H]1[C@@H](Cn2nnc3ccc(C(F)(F)F)cc3c2=O)CC[C@H]1C(=O)c1ccc(OCCC2CCCCC2)cc1` (single isomer, unassigned) [Example 52, (+)-(1RS,2RS,5SR)-2-[4-(2-Cyclohexylethoxy)benzoyl]-5-{[4-oxo-6-(trifluoromethyl)-1,2,3-benzotriazin-3(4H)-yl]methyl}cyclopentanecarboxylic acid], for which the IC50 in assay [1] was 10 nM; in assay [2], 160 nM; in assay [3] it was 6900 nM; in assay [4], 170 nM; in assay [5], 2800 nM.
The like results for `O=C(O)[C@H]1[C@H](Cn2nnc3ccccc3c2=O)CC[C@@H]1C(=O)c1ccc(OCc2cccc(Cl)c2)cc1` (racemic) [Example 2, (+/−)-(1RS,2RS,5SR)-2-{4-[(3-Chlorobenzyl)oxy]benzoyl}-5-[(4-oxo-1,2,3-benzotriazin-3(4H)-yl)methyl]cyclopentanecarboxylic acid] were, in that order, 4.1 nM, 1400 nM, 1300 nM, 140 nM and 1100 nM.
